In US10752624B2, “Kinase inhibitors” (Origenis GmbH, priority 2012, dated 2020) one finds IC50 data, which are given here for 23 compounds.

The target of one assay is T1, SYK kinase (Homo sapiens, UniProt P43405).
T1 construct: purchased Invitrogen, Carlsbad
Briefly: SYK Assay (OMNIA Kinase Assay, SOX peptide fluorescence). The format is biochemical. The settings on record: 1 mM ATP, 10 μM Omnia Peptide Substrate Tyr 7, 30° C., readings for 30 minutes; read-out: SYK Activities: IC50. An outline of the steps:
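The reaction was run at 30 °C with 1 mM ATP, 0.2 mM DTT and 10 μM Omnia Tyr 7 peptide (final) and started by adding SYK. Chelation-enhanced SOX fluorescence (ex 360/em 485 nm) was read every 30 s for 30 min. Reaction velocity versus inhibitor concentration was fitted sigmoidally for IC50.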

In a further assay the target is LRRK2 (Homo sapiens, UniProt Q5S007). Put plainly: LRRK2-LRRK2 G2019S-Assay (LanthaScreen Eu Kinase Binding Assay). The settings on record: 5 nM LRRK2, 10 nM tracer 236, 2 nM EU-Anti-GST antibody, 1 h at RT; read-out: LRRK2 Activities: IC50. The method in brief: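 Compound competition with Alexa Fluor 647 tracer 236 (10 nM) was measured after 1 h at room temperature, using 5 nM LRRK2 (wild type or mutant) bound to 2 nM Eu-anti-GST antibody. IC50 was derived from the acceptor/donor (665/615 nm) ratio using a variable-slope dose-response fit.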
Chain of LRRK2 (Q5S007 970-2527 limits assumed): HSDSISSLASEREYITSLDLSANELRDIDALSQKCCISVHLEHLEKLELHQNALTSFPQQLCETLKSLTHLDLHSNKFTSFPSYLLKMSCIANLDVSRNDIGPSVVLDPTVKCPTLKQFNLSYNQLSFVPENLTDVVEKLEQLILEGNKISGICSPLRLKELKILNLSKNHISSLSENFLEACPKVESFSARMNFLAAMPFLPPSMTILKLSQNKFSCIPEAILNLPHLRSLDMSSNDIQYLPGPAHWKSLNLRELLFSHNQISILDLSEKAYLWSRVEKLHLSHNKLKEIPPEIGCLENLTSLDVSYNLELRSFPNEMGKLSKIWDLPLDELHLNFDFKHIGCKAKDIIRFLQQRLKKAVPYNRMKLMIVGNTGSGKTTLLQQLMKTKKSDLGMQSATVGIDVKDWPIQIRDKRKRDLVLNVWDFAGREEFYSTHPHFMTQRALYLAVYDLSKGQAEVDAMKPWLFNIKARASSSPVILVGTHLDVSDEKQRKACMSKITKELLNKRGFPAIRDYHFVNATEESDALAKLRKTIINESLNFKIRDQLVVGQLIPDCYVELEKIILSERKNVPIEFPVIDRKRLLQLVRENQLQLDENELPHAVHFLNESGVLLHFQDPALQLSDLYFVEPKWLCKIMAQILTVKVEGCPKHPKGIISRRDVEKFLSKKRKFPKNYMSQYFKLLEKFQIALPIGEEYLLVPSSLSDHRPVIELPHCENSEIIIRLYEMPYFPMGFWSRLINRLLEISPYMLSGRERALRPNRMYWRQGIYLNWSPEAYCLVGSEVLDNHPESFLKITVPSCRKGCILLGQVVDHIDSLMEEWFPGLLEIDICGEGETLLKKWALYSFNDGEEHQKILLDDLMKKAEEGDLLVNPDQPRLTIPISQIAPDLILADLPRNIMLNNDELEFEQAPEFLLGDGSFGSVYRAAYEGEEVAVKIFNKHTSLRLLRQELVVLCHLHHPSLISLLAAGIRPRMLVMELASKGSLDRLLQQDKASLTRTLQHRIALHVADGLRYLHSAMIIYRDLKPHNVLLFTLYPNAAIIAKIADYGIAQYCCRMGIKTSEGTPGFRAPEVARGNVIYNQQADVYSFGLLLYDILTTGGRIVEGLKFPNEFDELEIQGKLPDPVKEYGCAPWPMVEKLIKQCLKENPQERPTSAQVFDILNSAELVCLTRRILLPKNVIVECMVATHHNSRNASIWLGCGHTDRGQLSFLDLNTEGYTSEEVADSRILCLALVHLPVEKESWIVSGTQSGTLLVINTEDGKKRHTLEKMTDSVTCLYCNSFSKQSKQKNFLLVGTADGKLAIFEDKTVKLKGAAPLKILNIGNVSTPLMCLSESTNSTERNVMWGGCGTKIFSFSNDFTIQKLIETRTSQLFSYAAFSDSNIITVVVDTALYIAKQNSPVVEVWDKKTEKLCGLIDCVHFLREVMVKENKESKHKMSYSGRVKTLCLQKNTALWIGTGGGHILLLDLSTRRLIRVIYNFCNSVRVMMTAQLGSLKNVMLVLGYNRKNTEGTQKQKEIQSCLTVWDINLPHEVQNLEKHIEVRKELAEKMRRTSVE
On the technique in general: In TR-FRET formats the signal depends on donor and acceptor labels being close together.

Each structure is given as a SMILES string.

In general, IC50 refers to the concentration at which inhibition is half-maximal.

Turning to `CC(C)(C)N1CCC(n2cc(Nc3nc4ccc(S(C)(=O)=O)cc4c4cn[nH]c34)cn2)CC1` [Example 211, N-(1-(1-(tert-butyl)piperidin-4-yl)-1H-pyrazol-4-yl)-8-(methylsulfonyl)-3H-pyrazolo[3,4-c]quinolin-4-amine], the IC50 at SYK kinase and on LRRK2 was < 0.01 µM each time.
For the compound `CS(=O)(=O)c1ccc2nc(Nc3cnn(CCF)c3)c3[nH]ncc3c2c1` [Example 221, N-(1-(2-fluoroethyl)-1H-pyrazol-4-yl)-8-(methylsulfonyl)-3H-pyrazolo[3,4-c]quinolin-4-amine], the IC50 on SYK kinase and on LRRK2 was < 0.01 µM in each case.
In the case of `COc1nn(C(C)C)cc1Nc1nc2cccc(OC)c2c2cn[nH]c12` [Example 224, N-(1-isopropyl-3-methoxy-1H-pyrazol-4-yl)-9-methoxy-3H-pyrazolo[3,4-c]quinolin-4-amine], the IC50 at SYK kinase is 0.1 to 1 µM; at LRRK2, < 0.01 µM.
Taken in the same sequence, the figures for `COc1nn(C(C)C)cc1Nc1nc2ccc(S(C)(=O)=O)cc2c2cn[nH]c12` [Example 226, N-(1-isopropyl-3-methoxy-1H-pyrazol-4-yl)-8-(methylsulfonyl)-3H-pyrazolo[3,4-c]quinolin-4-amine] were 0.1 to 1 µM and < 0.01 µM.
For `COc1c(Nc2nc3ccc(S(C)(=O)=O)cc3c3cn[nH]c23)cnn1C(C)C` [Example 227, N-(1-isopropyl-5-methoxy-1H-pyrazol-4-yl)-8-(methylsulfonyl)-3H-pyrazolo[3,4-c]quinolin-4-amine] the same measures were 0.1 to 1 µM and < 0.01 µM.
For `COc1nn(C2CCN(C(C)(C)C)CC2)cc1Nc1nc2ccc(S(C)(=O)=O)cc2c2cn[nH]c12` [Example 228, N-(1-(1-(tert-butyl)piperidin-4-yl)-3-methoxy-1H-pyrazol-4-yl)-8-(methylsulfonyl)-3H-pyrazolo[3,4-c]quinolin-4-amine] the same measures were 0.1 to 1 µM and 0.01 to 0.1 µM.
Take `COc1c(Nc2nc3ccc(S(C)(=O)=O)cc3c3cn[nH]c23)cnn1C1CCN(C(C)(C)C)CC1` [Example 229, N-(1-(1-(tert-butyl)piperidin-4-yl)-5-methoxy-1H-pyrazol-4-yl)-8-(methylsulfonyl)-3H-pyrazolo[3,4-c]quinolin-4-amine]: the IC50 on SYK kinase lay within 0.1 to 1 µM; on LRRK2, 0.01 to 0.1 µM.
With `COCCCn1cc(Nc2nc3ccc(S(C)(=O)=O)cc3c3cn[nH]c23)c(OC)n1` [Example 231, N-(3-methoxy-1-(3-methoxypropyl)-1H-pyrazol-4-yl)-8-(methylsulfonyl)-3H-pyrazolo[3,4-c]quinolin-4-amine], the IC50 at SYK kinase lay in the range of 0.1 to 1 µM; at LRRK2, 0.01 to 0.1 µM.
In the case of `COCCCn1ncc(Nc2nc3ccc(S(C)(=O)=O)cc3c3cn[nH]c23)c1OC` [Example 232, N-(5-methoxy-1-(3-methoxypropyl)-1H-pyrazol-4-yl)-8-(methylsulfonyl)-3H-pyrazolo[3,4-c]quinolin-4-amine], the IC50 on SYK kinase lay within 0.1 to 1 µM; on LRRK2, 0.01 to 0.1 µM.
Taken in the same sequence, the figures for `CC(C)n1ncc(Nc2nc3ccc(S(C)(=O)=O)cc3c3cn[nH]c23)c1Cl` [Example 233, N-(5-chloro-1-isopropyl-1H-pyrazol-4-yl)-8-(methylsulfonyl)-3H-pyrazolo[3,4-c]quinolin-4-amine] were 0.1 to 1 µM and < 0.01 µM.
Taken in the same sequence, the figures for `COc1cccc2nc(Nc3cnn(C4CCNCC4)c3)c3[nH]ncc3c12` [Example 236, 9-methoxy-N-(1-(piperidin-4-yl)-1H-pyrazol-4-yl)-3H-pyrazolo[3,4-c]quinolin-4-amine] were 0.01 to 0.1 µM and < 0.01 µM.
For `CC(C)n1cc(Nc2nc3ccc(S(C)(=O)=O)cc3c3cn[nH]c23)c(C#N)n1` [Example 246, 1-isopropyl-4-((8-(methylsulfonyl)-3H-pyrazolo[3,4-c]quinolin-4-yl)amino)-1H-pyrazole-3-carbonitrile] the same measures were 0.1 to 1 µM and 0.01 to 0.1 µM.
Turning to `CC(C)n1ncc(Nc2nc3ccc(S(C)(=O)=O)cc3c3cn[nH]c23)c1C#N` [Example 247, 1-isopropyl-4-((8-(methylsulfonyl)-3H-pyrazolo[3,4-c]quinolin-4-yl)amino)-1H-pyrazole-5-carbonitrile], the IC50 was 0.1 to 1 µM at SYK kinase and < 0.01 µM at LRRK2.
Taken in the same sequence, the figures for `COCCn1ncc(Nc2nc3ccc(S(C)(=O)=O)cc3c3cn[nH]c23)c1C#N` [Example 249, 1-(2-methoxyethyl)-4-((8-(methylsulfonyl)-3H-pyrazolo[3,4-c]quinolin-4-yl)amino)-1H-pyrazole-5-carbonitrile] were 0.1 to 1 µM and 0.01 to 0.1 µM.
Taken in the same sequence, the figures for `COc1cccc2nc(Nc3cnn(CCF)c3)c3[nH]ncc3c12` [Example 253, N-(1-(2-fluoroethyl)-1H-pyrazol-4-yl)-9-methoxy-3H-pyrazolo[3,4-c]quinolin-4-amine] were 0.1 to 1 µM and < 0.01 µM.
Turning to `COc1cccc2nc(Nc3cnn(CC(C)(C)O)c3)c3[nH]ncc3c12` [Example 256, 1-(4-((9-methoxy-3H-pyrazolo[3,4-c]quinolin-4-yl)amino)-1H-pyrazol-1-yl)-2-methylpropan-2-ol], the IC50 is 0.1 to 1 µM at SYK kinase and < 0.01 µM on LRRK2.
For `COc1cccc2nc(Nc3cnn(CC(F)(F)F)c3)c3[nH]ncc3c12` [Example 257, 9-methoxy-N-(1-(2,2,2-trifluoroethyl)-1H-pyrazol-4-yl)-3H-pyrazolo[3,4-c]quinolin-4-amine] the same measures were 0.1 to 1 µM and < 0.01 µM.
For `C=C(C)Cn1cc(Nc2nc3cccc(OC)c3c3cn[nH]c23)cn1` [Example 258, 9-methoxy-N-(1-(2-methylallyl)-1H-pyrazol-4-yl)-3H-pyrazolo[3,4-c]quinolin-4-amine] the same measures were 0.1 to 1 µM and < 0.01 µM.
For `COc1cccc2nc(Nc3cnn(C=C(C)C)c3)c3[nH]ncc3c12` [Example 259, 9-methoxy-N-(1-(2-methylprop-1-en-1-yl)-1H-pyrazol-4-yl)-3H-pyrazolo[3,4-c]quinolin-4-amine] the same measures were 0.1 to 1 µM and < 0.01 µM.
On to `CS(=O)(=O)c1ccc2nc(Nc3cnn(CC(F)(F)F)c3)c3[nH]ncc3c2c1` [Example 261, 8-(methylsulfonyl)-N-(1-(2,2,2-trifluoroethyl)-1H-pyrazol-4-yl)-3H-pyrazolo[3,4-c]quinolin-4-amine], for which the IC50 is 0.01 to 0.1 µM at SYK kinase and < 0.01 µM at LRRK2.
Taken in the same sequence, the figures for `CC(C)(O)Cn1cc(Nc2nc3ccc(S(C)(=O)=O)cc3c3cn[nH]c23)cn1` [Example 262, 2-methyl-1-(4-((8-(methylsulfonyl)-3H-pyrazolo[3,4-c]quinolin-4-yl)amino)-1H-pyrazol-1-yl)propan-2-ol] were 0.01 to 0.1 µM and < 0.01 µM.
For `CC(C)=Cn1cc(Nc2nc3ccc(S(C)(=O)=O)cc3c3cn[nH]c23)cn1` [Example 263, N-(1-(2-methylprop-1-en-1-yl)-1H-pyrazol-4-yl)-8-(methylsulfonyl)-3H-pyrazolo[3,4-c]quinolin-4-amine] the same measures were 0.01 to 0.1 µM and < 0.01 µM.
In the case of `C=C(C)Cn1cc(Nc2nc3ccc(S(C)(=O)=O)cc3c3cn[nH]c23)cn1` [Example 264, N-(1-(2-methylallyl)-1H-pyrazol-4-yl)-8-(methylsulfonyl)-3H-pyrazolo[3,4-c]quinolin-4-amine], the figures for the IC50 at SYK kinase and on LRRK2 were 0.01 to 0.1 µM and < 0.01 µM, respectively.
